Data: ChEMBL document CHEMBL1201862, “PubChem BioAssay data set” (2004)
Values belong to the compound of their own block, whether it stands above or below them. Active and inactive are the calls of the source.

Columns and labels:
[1] = target: Dual specificity protein kinase CLK1 (Homo sapiens, UniProt P49759); assay: CLK1 kinase inhibitors, off-target check, dose response, selectivity assay for Dyrk1A inhibitor project, biochemical, cherry-picked samples (AID 588811)
[2] = target: Dual specificity tyrosine-phosphorylation-regulated kinase 1A (Rattus norvegicus, UniProt Q63470); format: biochemical, Homo sapiens
[3] = target: Delta-type opioid receptor (Homo sapiens, UniProt P41143); assay: Counterscreen for agonists of heterodimerization of the mu 1 (OPRM1) and delta 1 (OPRD1) opioid receptors: Luminescence-based cell-based high throughput dose response assay to identify agonists of OPRD1 homodimerization. [Related pubchem assays (depositor defined):AID504326, AID504355, AID504692, AID504904, AID504905]; format: functional
[4] = target: Mu-type opioid receptor (Homo sapiens, UniProt P35372); assay: Counterscreen for agonists of heterodimerization of the mu 1 (OPRM1) and delta 1 (OPRD1) opioid receptors: Luminescence-based cell-based high throughput dose response assay to identify agonists of OPRM1 homodimerization.; format: functional;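 further: U2OS cells expressing OPRM1 and beta-arrestin as split beta-galactosidase partners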
[5] = target: 5-hydroxytryptamine receptor 5A (Homo sapiens, UniProt P47898); assay: Counterscreen for agonists of OPRM1-OPRD1 heterodimerization: luminescence-based cell-based high throughput dose response assay to identify agonists of 5-hydroxytryptamine (serotonin) 5A receptor (HTR5A). [Related pubchem assays (depositor defined):AID504326, AID504355, AID504692, AID504904, AID504905]; format: functional
[6] = A549 cell cytotoxicity, dose response, cytotoxicity control, plate reader, cherry-pick, antagonist series (AID 743412); format: functional, cell-based
[7] = HepG2 cell cytotoxicity, dose response, cytotoxicity control, plate reader, cherry-pick, antagonist series (AID 743416); format: functional, cell-based
[8] = LGR2 antagonists, dose response, cell-based, HEK293, CRE-luciferase reporter, cherry pick, set 2 (AID 743343); format: functional;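 further: transfected cells were stimulated with diluted bursicon conditioned medium after compound addition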
[9] = MC4R antagonists, dose response, counter-screen for LGR2 antagonist project, cell-based, plate reader, cherry pick (AID 743444); format: functional;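 further: transfected HEK 293 cells stimulated with alpha-MSH peptide; potency of inhibitors of the alpha-MSH evoked signal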
[10] = HEK293 cell cytotoxicity, dose response, cytotoxicity control, plate reader, cherry-picked samples (AID 743446); format: functional, cell-based
[11] = target: Beta-2 adrenergic receptor (Homo sapiens, UniProt P07550); assay: beta2AR agonists driving receptor internalization, dose response, cell-based, FAP fluorogen, flow cytometry, cherry pick 1 (AID 588763); format: functional
[12] = target: T1, Heat shock factor protein 1 (Mus musculus, UniProt P38532); assay: inhibition of MG132-induced HSE-luciferase signal, confirmation, cell-based, NIH3T3, luminescence, dose retest (AID 2382); format: functional;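 further: NIH3T3 fibroblasts with HSF1-driven luciferase reporter stressed by proteasome inhibitor MG132; luminescence from HSF1-driven luciferase expression after 8 hours of MG132 stress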
T1 sequence (P38532 whole entry): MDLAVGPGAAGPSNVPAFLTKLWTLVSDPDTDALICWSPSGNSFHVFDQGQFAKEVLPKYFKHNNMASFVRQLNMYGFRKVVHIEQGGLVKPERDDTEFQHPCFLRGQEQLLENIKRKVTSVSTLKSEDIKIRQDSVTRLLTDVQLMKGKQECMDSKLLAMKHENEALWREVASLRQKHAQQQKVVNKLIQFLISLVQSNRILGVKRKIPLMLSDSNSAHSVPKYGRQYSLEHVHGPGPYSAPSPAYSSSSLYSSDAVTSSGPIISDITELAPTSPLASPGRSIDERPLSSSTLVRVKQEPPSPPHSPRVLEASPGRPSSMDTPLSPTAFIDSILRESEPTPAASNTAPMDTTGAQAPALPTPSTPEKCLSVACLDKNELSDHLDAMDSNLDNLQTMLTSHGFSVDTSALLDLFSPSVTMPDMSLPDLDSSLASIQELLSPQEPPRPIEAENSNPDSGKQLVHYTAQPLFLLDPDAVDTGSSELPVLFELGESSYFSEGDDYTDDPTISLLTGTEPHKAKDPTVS

[13] = system: HEK293; assay: inhibitors of LMP1-driven NF-kB reporter, dose response, cell-based, HEK293, luciferase, cherry-pick (AID 588343); format: functional; conditions: Homo sapiens
[14] = target: Glyceraldehyde-3-phosphate dehydrogenase (Homo sapiens, UniProt P04406)
[15] = target: T2, Alkaline phosphatase, tissue-nonspecific isozyme (Homo sapiens, UniProt P05186); assay: human TNAP enzyme inhibitors, SAR follow-up, biochemical, luminescent, dose response (AID 1056)
T2 sequence (P05186 whole entry): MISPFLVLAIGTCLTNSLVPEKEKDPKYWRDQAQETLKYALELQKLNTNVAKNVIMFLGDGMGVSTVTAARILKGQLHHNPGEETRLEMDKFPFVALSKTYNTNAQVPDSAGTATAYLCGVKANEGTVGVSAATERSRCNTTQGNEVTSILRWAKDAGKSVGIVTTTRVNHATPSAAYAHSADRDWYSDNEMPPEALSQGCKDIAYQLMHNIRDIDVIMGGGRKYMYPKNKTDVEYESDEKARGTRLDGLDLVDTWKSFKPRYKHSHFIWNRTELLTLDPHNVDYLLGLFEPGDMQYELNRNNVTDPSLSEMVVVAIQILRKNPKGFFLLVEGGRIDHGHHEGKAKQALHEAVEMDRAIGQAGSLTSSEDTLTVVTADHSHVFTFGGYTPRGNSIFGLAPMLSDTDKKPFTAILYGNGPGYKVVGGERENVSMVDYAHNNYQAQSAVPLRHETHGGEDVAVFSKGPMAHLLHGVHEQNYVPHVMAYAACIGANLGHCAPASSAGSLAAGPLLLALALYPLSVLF

[16] = target: Melanocortin receptor 4 (Homo sapiens, UniProt P32245); assay: MC4R antagonist potency on cAMP, dose response, cell-based, TR-FRET, biased antagonists (AID 602298); format: functional;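 further: antagonist potency against agonist-stimulated cAMP production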
[17] = nonselective inhibitors of cellular cAMP signaling, dose response, counter-screen for MC4R biased antagonist project, cell-based, TR-FRET cAMP detection (AID 602305); format: functional;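 further: U2OS cells stimulated with forskolin near its EC80 as the cAMP inducer; potency is for inhibition of forskolin-stimulated cAMP signaling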
[18] = target: Trypsin (Sus scrofa, UniProt P00761); assay: porcine trypsin inhibitors, dose response, selectivity assay for Rce1 protease inhibitor project, biochemical, quenched peptide fluorescence, cherry-pick (AID 488789)
[19] = target: CAAX prenyl protease 2 (Homo sapiens, UniProt Q9Y256); assay: human Rce1 protease inhibitors, dose response, biochemical, yeast membranes, quenched-peptide fluorescence, cherry-pick (AID 588849)
Sequence of CAAX prenyl protease 2 (Q9Y256 whole entry): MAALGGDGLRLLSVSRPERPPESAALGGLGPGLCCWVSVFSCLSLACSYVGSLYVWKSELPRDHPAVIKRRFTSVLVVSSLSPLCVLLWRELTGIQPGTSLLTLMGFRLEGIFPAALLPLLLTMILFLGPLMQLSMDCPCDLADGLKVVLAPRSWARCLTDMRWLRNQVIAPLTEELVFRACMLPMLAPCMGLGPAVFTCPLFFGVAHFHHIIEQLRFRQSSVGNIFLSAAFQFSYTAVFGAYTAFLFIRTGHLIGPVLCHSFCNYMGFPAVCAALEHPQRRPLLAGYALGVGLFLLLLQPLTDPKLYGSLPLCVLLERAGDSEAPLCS

Sequence of Dual specificity protein kinase CLK1 (P49759 whole entry): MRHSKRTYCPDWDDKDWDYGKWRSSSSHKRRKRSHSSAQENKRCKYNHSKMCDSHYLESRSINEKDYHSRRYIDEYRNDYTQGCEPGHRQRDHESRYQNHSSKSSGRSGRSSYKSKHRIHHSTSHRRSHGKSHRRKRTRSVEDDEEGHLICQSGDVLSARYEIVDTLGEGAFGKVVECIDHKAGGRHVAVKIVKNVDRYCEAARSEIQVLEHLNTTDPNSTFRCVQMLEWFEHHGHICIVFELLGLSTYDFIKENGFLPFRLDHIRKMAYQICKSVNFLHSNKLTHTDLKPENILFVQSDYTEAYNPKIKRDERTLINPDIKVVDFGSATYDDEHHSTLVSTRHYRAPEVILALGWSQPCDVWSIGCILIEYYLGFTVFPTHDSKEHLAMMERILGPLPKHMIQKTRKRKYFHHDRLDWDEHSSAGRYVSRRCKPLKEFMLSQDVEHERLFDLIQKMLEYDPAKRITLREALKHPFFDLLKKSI
Sequence of Melanocortin receptor 4 (P32245 whole entry): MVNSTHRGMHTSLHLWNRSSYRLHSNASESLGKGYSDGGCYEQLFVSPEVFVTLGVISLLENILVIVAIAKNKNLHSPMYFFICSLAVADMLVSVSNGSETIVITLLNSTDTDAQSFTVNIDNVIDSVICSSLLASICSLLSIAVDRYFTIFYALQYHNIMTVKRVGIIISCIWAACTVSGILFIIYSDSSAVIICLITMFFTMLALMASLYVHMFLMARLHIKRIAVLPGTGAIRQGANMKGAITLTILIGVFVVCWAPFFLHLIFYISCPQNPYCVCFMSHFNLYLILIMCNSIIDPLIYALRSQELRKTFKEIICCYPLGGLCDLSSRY
Sequence of Glyceraldehyde-3-phosphate dehydrogenase (P04406 whole entry): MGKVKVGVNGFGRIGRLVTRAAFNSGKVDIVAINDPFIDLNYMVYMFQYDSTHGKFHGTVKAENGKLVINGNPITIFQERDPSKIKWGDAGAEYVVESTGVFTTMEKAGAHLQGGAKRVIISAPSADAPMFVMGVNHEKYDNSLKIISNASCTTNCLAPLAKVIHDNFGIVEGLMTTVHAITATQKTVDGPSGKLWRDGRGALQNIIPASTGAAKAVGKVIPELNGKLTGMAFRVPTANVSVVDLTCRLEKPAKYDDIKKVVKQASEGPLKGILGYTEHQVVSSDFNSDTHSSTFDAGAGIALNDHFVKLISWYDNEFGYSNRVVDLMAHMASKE
Sequence of Mu-type opioid receptor (P35372 whole entry): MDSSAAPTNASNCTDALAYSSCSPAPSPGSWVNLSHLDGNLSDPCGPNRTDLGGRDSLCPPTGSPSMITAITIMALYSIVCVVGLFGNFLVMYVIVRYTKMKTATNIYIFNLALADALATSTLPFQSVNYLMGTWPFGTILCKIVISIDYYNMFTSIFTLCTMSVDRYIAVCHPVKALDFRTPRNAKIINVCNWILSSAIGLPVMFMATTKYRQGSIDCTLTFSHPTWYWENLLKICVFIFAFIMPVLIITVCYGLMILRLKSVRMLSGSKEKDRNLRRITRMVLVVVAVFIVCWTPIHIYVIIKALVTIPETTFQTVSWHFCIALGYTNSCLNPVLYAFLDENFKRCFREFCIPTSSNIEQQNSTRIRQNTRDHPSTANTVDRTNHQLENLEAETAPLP
Sequence of 5-hydroxytryptamine receptor 5A (P47898 whole entry): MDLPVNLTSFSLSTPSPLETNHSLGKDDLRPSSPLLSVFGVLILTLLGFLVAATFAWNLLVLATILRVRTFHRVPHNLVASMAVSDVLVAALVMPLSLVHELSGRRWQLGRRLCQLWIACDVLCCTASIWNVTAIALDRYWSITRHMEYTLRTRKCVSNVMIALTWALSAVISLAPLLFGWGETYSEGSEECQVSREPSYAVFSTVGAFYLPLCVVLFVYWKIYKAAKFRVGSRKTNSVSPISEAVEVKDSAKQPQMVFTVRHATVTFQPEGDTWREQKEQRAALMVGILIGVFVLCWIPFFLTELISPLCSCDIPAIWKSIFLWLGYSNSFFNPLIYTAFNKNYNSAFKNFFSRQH
Sequence of Delta-type opioid receptor (P41143 whole entry): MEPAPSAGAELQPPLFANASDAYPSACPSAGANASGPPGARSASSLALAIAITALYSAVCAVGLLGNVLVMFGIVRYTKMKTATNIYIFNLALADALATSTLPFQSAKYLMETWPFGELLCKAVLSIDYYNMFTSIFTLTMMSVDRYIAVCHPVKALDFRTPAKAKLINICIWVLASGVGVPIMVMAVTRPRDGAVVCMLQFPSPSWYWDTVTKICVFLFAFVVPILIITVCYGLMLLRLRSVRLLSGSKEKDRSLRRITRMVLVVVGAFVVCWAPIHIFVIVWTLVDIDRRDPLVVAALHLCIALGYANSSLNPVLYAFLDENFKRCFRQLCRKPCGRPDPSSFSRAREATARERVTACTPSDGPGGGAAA
Sequence of Trypsin (P00761 whole entry): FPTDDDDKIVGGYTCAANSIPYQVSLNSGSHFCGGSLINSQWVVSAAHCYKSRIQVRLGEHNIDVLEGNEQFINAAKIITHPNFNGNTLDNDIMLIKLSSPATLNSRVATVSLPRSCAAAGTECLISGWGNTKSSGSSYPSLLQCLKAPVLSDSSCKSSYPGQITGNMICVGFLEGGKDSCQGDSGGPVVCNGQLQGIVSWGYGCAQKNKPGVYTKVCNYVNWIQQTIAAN
Sequence of Beta-2 adrenergic receptor (P07550 whole entry): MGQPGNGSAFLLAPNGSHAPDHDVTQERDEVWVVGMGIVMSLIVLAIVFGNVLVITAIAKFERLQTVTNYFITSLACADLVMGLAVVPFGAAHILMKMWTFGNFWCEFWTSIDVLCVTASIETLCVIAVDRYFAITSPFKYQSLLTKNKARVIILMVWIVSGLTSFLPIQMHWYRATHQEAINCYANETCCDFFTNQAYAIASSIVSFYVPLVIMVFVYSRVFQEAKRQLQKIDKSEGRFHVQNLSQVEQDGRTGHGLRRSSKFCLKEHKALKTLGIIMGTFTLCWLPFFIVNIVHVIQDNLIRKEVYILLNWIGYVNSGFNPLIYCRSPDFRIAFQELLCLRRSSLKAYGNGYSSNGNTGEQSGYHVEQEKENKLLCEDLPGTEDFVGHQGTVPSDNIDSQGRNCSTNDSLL

AC50 [1]: 9.67 µM (active)
AC50 [2]: 5.3 µM (active)
SMILES: COc1cccc(NC(=O)Nc2ccc3c(c2)N(C)C(=O)CS3)c1

SMILES: CC(C)n1ncc2c(C(=O)Nc3cccc(C#N)c3)cc(C3CC3)nc21
EC50 [3]: > 92.5 µM (inactive)
EC50 [4]: 18 µM (inactive)
EC50 [5]: > 92.5 µM (inactive)
AC50 [6]: 39.1 µM (active)
AC50 [7]: 21.8 µM (active)
AC50 [8]: 1.46 µM (active)
AC50 [9]: 0.789 µM (active)
AC50 [10]: 24.3 µM (active)

EC50 [11]: 1.18 µM (active)
SMILES: Nc1cc(N)nc(SCc2cc([N+](=O)[O-])cc3c2OCOC3)n1

SMILES: Cc1ccc(-n2cc(C(=O)c3ccccc3O)cn2)cc1
EC50 [12]: < 0.16 µM (active)
AC50 [13]: 0.725 µM (active)

IC50 [14]: > 10 µM (inconclusive)
IC50 [15]: 3.71 µM (active)
AC50 [1]: 16.9 µM (active)
AC50 [2]: 7.28 µM (active)
SMILES: COc1ccc2c(c1)CCc1c-2n[nH]c1C(=O)O

SMILES: CC(C)CN(C(=O)COC(=O)c1cnc(Cl)c(Cl)c1)c1c(N)n(Cc2ccccc2)c(=O)[nH]c1=O
IC50 [16]: 11.1 µM (inactive)
IC50 [17]: > 64.6 µM (inactive)

AC50 [18]: 10.9 µM (active)
AC50 [19]: 15.3 µM (active)
SMILES: Cc1cc(C)c2nc(-c3ccco3)cc(C(=O)O)c2c1

SMILES: O=C(COC(=O)CNS(=O)(=O)c1cccc(Br)c1)Nc1ccccc1Sc1ccccc1
IC50 [16]: 8.42 µM (active)
IC50 [17]: > 64.6 µM (inactive)

SMILES: COc1ccc2cc(-c3cc(C(=O)OCC(=O)Nc4c(C)n(C)n(-c5ccccc5)c4=O)c4ccccc4n3)ccc2c1
AC50 [13]: 1.07 µM (active)
